Calls of active or inactive are those of the source. No cut-off for these calls is given here.
Columns and labels:
[1] = tested on: HCT-116; experiment: Antiproliferative activity against human HCT116 cells after 48 hrs by MTT assay; assay type: functional, cell-based; details: HCT-116, 48 h
[2] = tested on: HepG2; experiment: Antiproliferative activity against human HepG2 cells after 48 hrs by MTT assay; assay type: functional, cell-based; details: HepG2, 48 h
[3] = tested on: MCF7; experiment: Antiproliferative activity against human MCF7 cells after 48 hrs by MTT assay; assay type: functional, cell-based; details: MCF7, 48 h
[4] = molecular target: T1, DNA topoisomerase 1 (Homo sapiens) (UniProt P11387); experiment: Inhibition of DNA topoisomerase-1 (unknown origin) assessed as reduction in enzyme-catalyzed relaxation of pBR322 DNA substrate at 20 uM after 30 mins by ethidium bromide staining based electrophoresis
T1 sequence (whole entry): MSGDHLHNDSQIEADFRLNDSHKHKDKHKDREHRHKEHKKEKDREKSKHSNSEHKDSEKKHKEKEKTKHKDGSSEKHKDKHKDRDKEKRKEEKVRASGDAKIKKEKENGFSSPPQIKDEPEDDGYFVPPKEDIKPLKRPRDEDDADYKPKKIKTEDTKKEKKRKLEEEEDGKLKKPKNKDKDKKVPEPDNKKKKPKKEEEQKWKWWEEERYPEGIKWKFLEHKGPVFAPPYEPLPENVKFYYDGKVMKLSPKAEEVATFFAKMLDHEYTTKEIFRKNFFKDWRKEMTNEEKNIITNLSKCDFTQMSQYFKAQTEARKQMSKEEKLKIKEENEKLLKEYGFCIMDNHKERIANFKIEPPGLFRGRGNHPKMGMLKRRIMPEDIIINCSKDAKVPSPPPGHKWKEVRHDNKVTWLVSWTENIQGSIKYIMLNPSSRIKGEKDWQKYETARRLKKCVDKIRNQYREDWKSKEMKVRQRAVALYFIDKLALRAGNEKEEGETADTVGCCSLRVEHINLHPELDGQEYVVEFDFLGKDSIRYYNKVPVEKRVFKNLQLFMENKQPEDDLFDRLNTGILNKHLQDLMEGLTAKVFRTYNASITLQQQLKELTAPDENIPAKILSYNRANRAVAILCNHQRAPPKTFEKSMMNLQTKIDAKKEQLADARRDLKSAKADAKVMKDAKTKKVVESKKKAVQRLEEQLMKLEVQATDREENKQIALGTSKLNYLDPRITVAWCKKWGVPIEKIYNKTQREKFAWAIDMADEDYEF

[5] = tested on: A549; experiment: Antiproliferative activity against human A549 cells after 48 hrs by MTT assay; assay type: functional, cell-based; details: A549, 48 h
[6] = tested on: Mus musculus; experiment: Toxicity in ICR mouse implanted with mouse H22-H8D8 cells assessed as body weight at 20 mg/kg, iv (reference value: 29.89 to 33.78 g); assay type: organism-based; details: in vivo
[7] = Antitumor activity against mouse H22-H8D8 cells implanted in ICR mouse assessed as tumor growth inhibition at 10 mg/kg, iv relative to control; assay type: functional; details: read-out: TGI
[8] = Antitumor activity against mouse H22-H8D8 cells implanted in ICR mouse assessed as tumor growth inhibition at 5 mg/kg, iv relative to control; assay type: functional; details: read-out: TGI
[9] = tested on: Mus musculus; experiment: Toxicity in ICR mouse implanted with mouse H22-H8D8 cells assessed as body weight at 5 mg/kg, iv (reference value: 29.89 to 33.78 g); assay type: organism-based; details: in vivo
[10] = tested on: Mus musculus; experiment: Toxicity in ICR mouse implanted with mouse H22-H8D8 cells assessed as body weight at 10 mg/kg, iv (reference value: 29.89 to 33.78 g); assay type: organism-based; details: in vivo
[11] = molecular target: DNA topoisomerase 2-alpha (Homo sapiens) (UniProt P11388); experiment: Inhibition of DNA topoisomerase-2alpha (unknown origin) assessed as reduction in enzyme-catalyzed relaxation of pBR322 DNA substrate at 20 uM after 30 mins by ethidium bromide staining based electrophoresis
[12] = Antitumor activity against mouse H22-H8D8 cells implanted in ICR mouse assessed as tumor growth inhibition at 20 mg/kg, iv relative to control; assay type: functional; details: read-out: TGI
[13] = tested on: HepG2; experiment: Induction of apoptosis in human HepG2 cells assessed as increase in Bax/Bcl2 ratio up to 8 uM after 24 hrs by Western blot method; assay type: functional, cell-based
[14] = tested on: HepG2; experiment: Induction of apoptosis in human HepG2 cells assessed as live cells at 4 uM after 24 hrs by Annexin V-APC/7-AAD staining based flow cytometry (reference value: 87%); assay type: functional
[15] = tested on: HepG2; experiment: Induction of apoptosis in human HepG2 cells assessed as late apoptotic cells at 8 uM after 24 hrs by Annexin V-APC/7-AAD staining based flow cytometry (reference value: 6.86%); assay type: functional
[16] = tested on: HepG2; experiment: Induction of apoptosis in human HepG2 cells assessed as early apoptotic cells at 8 uM after 24 hrs by Annexin V-APC/7-AAD staining based flow cytometry (reference value: 0.774%); assay type: functional
[17] = tested on: HepG2; experiment: Upregulation of p21 protein expression in human HepG2 cells after 24 hrs by Western blot method; assay type: functional, cell-based
[18] = tested on: HepG2; experiment: Induction of apoptosis in human HepG2 cells assessed as increase in cleaved caspase-9 expression after 24 hrs by Western blot method; assay type: functional, cell-based
[19] = tested on: HepG2; experiment: Induction of apoptosis in human HepG2 cells assessed as late apoptotic cells at 4 uM after 24 hrs by Annexin V-APC/7-AAD staining based flow cytometry (reference value: 6.86%); assay type: functional
[20] = tested on: HepG2; experiment: Induction of apoptosis in human HepG2 cells assessed as early apoptotic cells at 2 uM after 24 hrs by Annexin V-APC/7-AAD staining based flow cytometry (reference value: 0.774%); assay type: functional
[21] = tested on: HepG2; experiment: Cell cycle arrest in human HepG2 cells assessed as accumulation at G2/M phase after 24 hrs by propidium iodide staining based flow cytometry; assay type: functional
[22] = tested on: HepG2; experiment: Induction of apoptosis in human HepG2 cells assessed as late apoptotic cells at 2 uM after 24 hrs by Annexin V-APC/7-AAD staining based flow cytometry (reference value: 6.86%); assay type: functional
[23] = tested on: HepG2; experiment: Downregulation of cyclin B protein expression in human HepG2 cells after 24 hrs by Western blot method; assay type: functional, cell-based
[24] = tested on: HepG2; experiment: Induction of apoptosis in human HepG2 cells assessed as increase in cytochrome c release from mitochondria to cytosol up to 8 uM after 24 hrs by Western blot method; assay type: functional, cell-based
[25] = tested on: HepG2; experiment: Induction of apoptosis in human HepG2 cells assessed as live cells at 2 uM after 24 hrs by Annexin V-APC/7-AAD staining based flow cytometry (reference value: 87%); assay type: functional
[26] = tested on: HepG2; experiment: Induction of apoptosis in human HepG2 cells after 24 hrs by Annexin V-APC/7-AAD staining based flow cytometry; assay type: functional, cell-based
[27] = tested on: HepG2; experiment: Cell cycle arrest in human HepG2 cells assessed as accumulation at subG1 phase at 2 to 8 uM after 24 hrs by propidium iodide staining based flow cytometry; assay type: functional
[28] = tested on: HepG2; experiment: Induction of apoptosis in human HepG2 cells assessed as necrotic cells at 8 uM after 24 hrs by Annexin V-APC/7-AAD staining based flow cytometry (reference value: 5.35%); assay type: functional
[29] = tested on: HepG2; experiment: Induction of apoptosis in human HepG2 cells assessed as increase in cleaved caspase-3 expression after 24 hrs by Western blot method; assay type: functional, cell-based
[30] = tested on: HepG2; experiment: Upregulation of p53 protein expression in human HepG2 cells after 24 hrs by Western blot method; assay type: functional, cell-based
[31] = molecular target: T1, DNA topoisomerase 1 (Homo sapiens); experiment: Inhibition of DNA topoisomerase-1 (unknown origin) assessed as reduction in enzyme-catalyzed relaxation of pBR322 DNA substrate at 2.5 to 5 uM after 30 mins by ethidium bromide staining based electrophoresis
[32] = molecular target: DNA topoisomerase 2-alpha (Homo sapiens) (UniProt P11388); experiment: Inhibition of DNA topoisomerase-2alpha (unknown origin) assessed as reduction in enzyme-catalyzed relaxation of pBR322 DNA substrate at 20 to 500 nM after 30 mins by ethidium bromide staining based electrophoresis
[33] = tested on: HepG2; experiment: Induction of apoptosis in human HepG2 cells assessed as live cells at 8 uM after 24 hrs by Annexin V-APC/7-AAD staining based flow cytometry (reference value: 87%); assay type: functional
[34] = tested on: HepG2; experiment: Downregulation of CDK1 protein expression in human HepG2 cells after 24 hrs by Western blot method; assay type: functional, cell-based
[35] = tested on: HepG2; experiment: Induction of apoptosis in human HepG2 cells assessed as necrotic cells at 2 uM after 24 hrs by Annexin V-APC/7-AAD staining based flow cytometry (reference value: 5.35%); assay type: functional
[36] = tested on: HepG2; experiment: Induction of apoptosis in human HepG2 cells assessed as necrotic cells at 4 uM after 24 hrs by Annexin V-APC/7-AAD staining based flow cytometry (reference value: 5.35%); assay type: functional
[37] = tested on: HepG2; experiment: Induction of apoptosis in human HepG2 cells assessed as early apoptotic cells at 4 uM after 24 hrs by Annexin V-APC/7-AAD staining based flow cytometry (reference value: 0.774%); assay type: functional

DNA topoisomerase 2-alpha (Homo sapiens), sequence (P11388 whole entry): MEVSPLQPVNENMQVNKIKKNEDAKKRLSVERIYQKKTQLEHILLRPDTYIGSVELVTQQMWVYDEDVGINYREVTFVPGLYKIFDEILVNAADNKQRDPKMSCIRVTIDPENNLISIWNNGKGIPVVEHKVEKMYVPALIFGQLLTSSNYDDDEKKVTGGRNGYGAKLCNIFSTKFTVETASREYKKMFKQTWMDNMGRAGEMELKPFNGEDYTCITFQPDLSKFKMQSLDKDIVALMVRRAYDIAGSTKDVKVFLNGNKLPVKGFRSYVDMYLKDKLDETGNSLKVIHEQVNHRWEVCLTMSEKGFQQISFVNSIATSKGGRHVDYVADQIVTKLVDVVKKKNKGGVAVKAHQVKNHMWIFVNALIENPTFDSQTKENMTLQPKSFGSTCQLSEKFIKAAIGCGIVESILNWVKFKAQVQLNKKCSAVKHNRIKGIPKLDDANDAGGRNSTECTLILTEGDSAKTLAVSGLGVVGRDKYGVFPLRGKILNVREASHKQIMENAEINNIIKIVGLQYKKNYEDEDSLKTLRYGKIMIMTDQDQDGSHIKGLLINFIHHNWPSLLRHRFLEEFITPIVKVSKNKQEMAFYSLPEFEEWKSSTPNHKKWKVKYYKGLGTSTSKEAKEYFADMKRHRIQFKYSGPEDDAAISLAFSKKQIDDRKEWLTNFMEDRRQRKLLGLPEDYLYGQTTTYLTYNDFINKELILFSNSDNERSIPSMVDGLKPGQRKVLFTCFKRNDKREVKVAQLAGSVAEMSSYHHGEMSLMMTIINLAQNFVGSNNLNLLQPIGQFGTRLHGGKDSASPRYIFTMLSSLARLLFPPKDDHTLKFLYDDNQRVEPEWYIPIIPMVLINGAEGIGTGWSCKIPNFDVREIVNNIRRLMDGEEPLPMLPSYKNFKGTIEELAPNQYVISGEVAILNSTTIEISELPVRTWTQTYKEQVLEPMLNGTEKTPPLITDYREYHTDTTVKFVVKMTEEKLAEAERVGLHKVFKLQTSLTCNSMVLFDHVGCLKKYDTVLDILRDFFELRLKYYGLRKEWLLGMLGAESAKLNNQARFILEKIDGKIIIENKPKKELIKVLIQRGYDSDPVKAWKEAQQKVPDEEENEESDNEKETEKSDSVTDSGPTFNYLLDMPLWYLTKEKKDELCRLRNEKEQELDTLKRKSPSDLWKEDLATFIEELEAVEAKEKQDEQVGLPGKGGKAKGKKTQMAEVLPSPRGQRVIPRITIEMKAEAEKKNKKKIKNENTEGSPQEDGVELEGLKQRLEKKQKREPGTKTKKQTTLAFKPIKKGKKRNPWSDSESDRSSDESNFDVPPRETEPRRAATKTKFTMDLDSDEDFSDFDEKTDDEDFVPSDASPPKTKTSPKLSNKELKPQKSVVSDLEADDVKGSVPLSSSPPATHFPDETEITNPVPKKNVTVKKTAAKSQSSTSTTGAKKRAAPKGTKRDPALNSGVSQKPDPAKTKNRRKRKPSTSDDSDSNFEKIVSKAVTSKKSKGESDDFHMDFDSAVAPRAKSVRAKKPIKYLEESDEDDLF

## CC[C@@]1(O)C(=O)OCc2c1cc1n(c2=O)Cc2cc3cc(O)ccc3nc2-1 [HYDROXYCAMPTOTHECIN]
[1]
  IC50: 3.5 µM
[2]
  IC50: 10.1 µM
[3]
  IC50: 2.4 µM
[4]
  inhibition: Active
[5]
  IC50: 0.8 µM

## CCOC(=O)C1=C(N)Oc2c(N)cc3nc4ccccc4nc3c2C1c1cccc(Cl)c1Cl (stereo unspecified)
[1]
  IC50: 7.8 µM
[2]
  IC50: 4.48 µM
[6]
  Activity: 40.33 g
[7]
  inhibition in vivo at 10 mg/kg: 4.5%
[8]
  inhibition in vivo at 5 mg/kg: 27%
[3]
  IC50: > 50 µM
[4]
  inhibition: Active
[9]
  Activity: 37.78 g
[5]
  IC50: 7.24 µM
[10]
  Activity: 39.22 g
[11]
  inhibition: Active
[12]
  inhibition in vivo at 20 mg/kg: 26.1%

## CCOC(=O)C1=C(N)Oc2c(N)cc3nc4ccccc4nc3c2C1c1ccccc1Br (stereo unspecified)
[1]
  IC50: 30.2 µM
[2]
  IC50: 5 µM
[6]
  Activity: 35.56 g
[7]
  inhibition in vivo at 10 mg/kg: 28.9%
[8]
  inhibition in vivo at 5 mg/kg: 38.9%
[3]
  IC50: 28.4 µM
[4]
  inhibition: Active
[9]
  Activity: 35.78 g
[5]
  IC50: 6.32 µM
[10]
  Activity: 37.44 g
[11]
  inhibition: Active
[12]
  inhibition in vivo at 20 mg/kg: 45.6%

## O=P1(N(CCCl)CCCl)NCCCO1 (stereo unspecified) [CYCLOPHOSPHAMIDE ANHYDROUS]
[6]
  Activity: 34.3 to 35.6 g
[12]
  inhibition in vivo at 20 mg/kg: 66.7 to 67.8%

## COc1cc([C@@H]2c3cc4c(cc3[C@@H](O[C@@H]3O[C@@H]5CO[C@@H](C)O[C@H]5[C@H](O)[C@H]3O)[C@H]3COC(=O)[C@H]23)OCO4)cc(OC)c1O
[11]
  inhibition: Active

## N#CC1=C(N)Oc2c(N)cc3nc4ccccc4nc3c2C1c1ccc(Cl)c(Cl)c1 (stereo unspecified)
[13]
  Activity: Active
[1]
  IC50: 8 µM
[14]
  Activity: 44.7%
[15]
  Activity: 53.5%
[16]
  Activity: 3.31%
[2]
  IC50: 2.1 µM
[17]
  Activity: Dose-dependent effect
[18]
  Activity: Dose-dependent effect
[19]
  Activity: 31.5%
[20]
  Activity: 3.1%
[21]
  Activity: Dose-dependent effect
[6]
  Activity: 35.22 g
[7]
  inhibition in vivo at 10 mg/kg: 68.9%
[22]
  Activity: 11.2%
[23]
  Activity: Dose-dependent effect
[24]
  Activity: Active
[25]
  Activity: 80%
[8]
  inhibition in vivo at 5 mg/kg: 7.78%
[26]
  Activity: Dose-dependent effect
[3]
  IC50: 7.3 µM
[27]
  Activity: Active
[28]
  Activity: 20.7%
[4]
  inhibition: Active
[29]
  Activity: Dose-dependent effect
[30]
  Activity: Dose-dependent effect
[31]
  inhibition: Active
[32]
  inhibition: Active
[9]
  Activity: 38 g
[5]
  IC50: 6.8 µM
[33]
  Activity: 22.5%
[10]
  Activity: 35.33 g
[34]
  Activity: Dose-dependent effect
[11]
  inhibition: Active
[12]
  inhibition in vivo at 20 mg/kg: 77.8%
[35]
  Activity: 5.65%
[36]
  Activity: 14.9%
[37]
  Activity: 8.97%

## N#CC1=C(N)Oc2c(N)cc3nc4ccccc4nc3c2C1c1ccc(Cl)cc1 (stereo unspecified)
[1]
  IC50: 10.2 µM
[2]
  IC50: 2.2 µM
[6]
  Activity: 37.22 g
[7]
  inhibition in vivo at 10 mg/kg: 11.7%
[8]
  inhibition in vivo at 5 mg/kg: 0.09%
[3]
  IC50: 18.6 µM
[4]
  inhibition: Active
[9]
  Activity: 40 g
[5]
  IC50: 9.5 µM
[10]
  Activity: 41.33 g
[11]
  inhibition: Active
[12]
  inhibition in vivo at 20 mg/kg: 57.7%
